Laboratory results as given in PubChem BioAssay (NCI).
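Compound exposure: 48 hours, 5 concentrations, 96-well plates. At the TGI there is no net growth.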

Experiments:
Test in all cases: growth of human tumour cells (NCI), 48 h
A498 renal = test system: A498 renal
A549 NSCLC = test system: A549 NSCLC
ACHN renal = test system: ACHN renal
CAKI-1 renal = test system: CAKI-1 renal
CCRF-CEM leukemia = test system: CCRF-CEM leukemia
COLO 205 colon = test system: COLO 205 colon
DLD-1 colon = test system: DLD-1 colon
DMS 114 small cell lung = test system: DMS 114 small cell lung
EKVX NSCLC = test system: EKVX NSCLC
HCC-2998 colon = test system: HCC-2998 colon
HCT-116 colon = test system: HCT-116 colon
HCT-15 colon = test system: HCT-15 colon
HL-60(TB) leukemia = test system: HL-60(TB) leukemia
HOP-18 NSCLC = test system: HOP-18 NSCLC
HOP-62 NSCLC = test system: HOP-62 NSCLC
HT29 colon = test system: HT29 colon
IGROV1 ovarian = test system: IGROV1 ovarian
K-562 leukemia = test system: K-562 leukemia
KM12 colon = test system: KM12 colon
KM20L2 colon = test system: KM20L2 colon
LOX IMVI melanoma = test system: LOX IMVI melanoma
LXFL 529 NSCLC = test system: LXFL 529 NSCLC
M14 melanoma = test system: M14 melanoma
M19-MEL melanoma = test system: M19-MEL melanoma
MALME-3M melanoma = test system: MALME-3M melanoma
MOLT-4 leukemia = test system: MOLT-4 leukemia
NCI-H226 lung = test system: NCI-H226 lung
NCI-H23 lung = test system: NCI-H23 lung
NCI-H460 lung = test system: NCI-H460 lung
NCI-H522 lung = test system: NCI-H522 lung
OVCAR-3 ovarian = test system: OVCAR-3 ovarian
OVCAR-4 ovarian = test system: OVCAR-4 ovarian
OVCAR-5 ovarian = test system: OVCAR-5 ovarian
OVCAR-8 ovarian = test system: OVCAR-8 ovarian
RPMI-8226 leukemia = test system: RPMI-8226 leukemia
SF-268 CNS = test system: SF-268 CNS
SF-295 CNS = test system: SF-295 CNS
SF-539 CNS = test system: SF-539 CNS
SK-MEL-2 melanoma = test system: SK-MEL-2 melanoma
SK-MEL-28 melanoma = test system: SK-MEL-28 melanoma
SK-MEL-5 melanoma = test system: SK-MEL-5 melanoma
SK-OV-3 ovarian = test system: SK-OV-3 ovarian
SN12C renal = test system: SN12C renal
SNB-19 CNS = test system: SNB-19 CNS
SNB-75 CNS = test system: SNB-75 CNS
SNB-78 CNS = test system: SNB-78 CNS
SR leukemia = test system: SR leukemia
SW-620 colon = test system: SW-620 colon
U251 CNS = test system: U251 CNS
UACC-257 melanoma = test system: UACC-257 melanoma
UACC-62 melanoma = test system: UACC-62 melanoma
UO-31 renal = test system: UO-31 renal
786-0 renal = test system: 786-0 renal
DMS 273 small cell lung = test system: DMS 273 small cell lung
HOP-92 NSCLC = test system: HOP-92 NSCLC
TK-10 renal = test system: TK-10 renal

Measured: TGI

O=C(OCCOC(=O)c1ccc2c(c1)C1(SCCS1)c1ccccc1-2)c1ccc2c(c1)C1(SCCS1)c1ccccc1-2
> 100 µM: A498 renal | A549 NSCLC | ACHN renal | CAKI-1 renal | CCRF-CEM leukemia | COLO 205 colon | DLD-1 colon | DMS 114 small cell lung | EKVX NSCLC | HCC-2998 colon | HCT-116 colon | HCT-15 colon | HL-60(TB) leukemia | HOP-18 NSCLC | HOP-62 NSCLC | HT29 colon | IGROV1 ovarian | K-562 leukemia | KM12 colon | KM20L2 colon | LOX IMVI melanoma | LXFL 529 NSCLC | M14 melanoma | M19-MEL melanoma | MALME-3M melanoma | MOLT-4 leukemia | NCI-H226 lung | NCI-H23 lung | NCI-H460 lung | NCI-H522 lung | OVCAR-3 ovarian | OVCAR-4 ovarian | OVCAR-5 ovarian | OVCAR-8 ovarian | RPMI-8226 leukemia | SF-268 CNS | SF-295 CNS | SF-539 CNS | SK-MEL-2 melanoma | SK-MEL-28 melanoma | SK-MEL-5 melanoma | SK-OV-3 ovarian | SN12C renal | SNB-19 CNS | SNB-75 CNS | SNB-78 CNS | SR leukemia | SW-620 colon | U251 CNS | UACC-257 melanoma | UACC-62 melanoma | UO-31 renal

NC1=NS(=O)(=O)Nc2nc(-c3ccc(Cl)cc3)[nH]c21
> 100 µM: 786-0 renal | A498 renal | A549 NSCLC | ACHN renal | CAKI-1 renal | CCRF-CEM leukemia | COLO 205 colon | DLD-1 colon | DMS 114 small cell lung | DMS 273 small cell lung | HCC-2998 colon | HCT-116 colon | HCT-15 colon | HL-60(TB) leukemia | HOP-18 NSCLC | HOP-62 NSCLC | HOP-92 NSCLC | HT29 colon | IGROV1 ovarian | K-562 leukemia | KM12 colon | KM20L2 colon | LOX IMVI melanoma | LXFL 529 NSCLC | M14 melanoma | M19-MEL melanoma | MALME-3M melanoma | MOLT-4 leukemia | NCI-H23 lung | NCI-H460 lung | NCI-H522 lung | OVCAR-3 ovarian | OVCAR-4 ovarian | OVCAR-5 ovarian | OVCAR-8 ovarian | RPMI-8226 leukemia | SF-268 CNS | SF-295 CNS | SF-539 CNS | SK-MEL-2 melanoma | SK-MEL-28 melanoma | SK-MEL-5 melanoma | SK-OV-3 ovarian | SN12C renal | SNB-19 CNS | SNB-75 CNS | SR leukemia | SW-620 colon | TK-10 renal | U251 CNS | UACC-62 melanoma | UO-31 renal
